Data set [1] concerns PANC-1. The data set can be described thus: Inhibition of colony formation in human PANC-1 cells at 1 uM incubated for 14 days by crystal violet staining based analysis. It counts as functional, cell-based. The following applies: time 14.0 day.
Data set [2] concerns PANC-1. Put plainly: Induction of DNA damage in human PANC-1 cells assessed as increase in gamma-H2AX level at 1 uM in presence of OL by Western blot analysis. Type of data set: functional, cell-based.
Data set [3] has as its system PANC-1. The data set can be described thus: Induction of cell cycle arrest in human PANC-1 cells assessed as accumulation at G1 phase at 0.25 uM incubated for 24 hrs by PI staining based flow cytometry (reference value: 51.70 %). Type of data set: functional.
Data set [4] deals with PANC-1. Put plainly: Induction of cell cycle arrest in human PANC-1 cells assessed as accumulation at G2 phase at 0.25 uM incubated for 24 hrs by PI staining based flow cytometry (reference value: 9.36 %). It counts as functional. For orientation: A flow cytometer gives signals particle by particle.
In data set [5] the test system is PANC-1. Put plainly: Induction of cell cycle arrest in human PANC-1 cells assessed as accumulation at G2 phase at 0.5 uM incubated for 24 hrs by PI staining based flow cytometry (reference value: 9.36 %). Type of data set: functional.
For data set [6], the system named is PANC-1. Put plainly: Induction of cell cycle arrest in human PANC-1 cells assessed as accumulation at S phase at 1 uM incubated for 24 hrs by PI staining based flow cytometry (reference value: 38.94 %). Type of data set: functional.
Data set [7] concerns PANC-1. Put plainly: Induction of cell cycle arrest in human PANC-1 cells assessed as accumulation at G0/G1 phase at 1 uM incubated for 24 hrs in presence of OL by PI staining based flow cytometry relative to control. Type of data set: functional.
Data set [8] relates to PANC-1. Put plainly: Induction of apoptosis in human PANC-1 cells assessed as viable cells at 0.12 uM incubated for 48 hrs by Annexin V-FITC/PI staining based flow cytometry (reference value: 91.64 %). The following applies: read-out: Activity. Type of data set: functional.
Data set [9] relates to PANC-1. Put plainly: Induction of apoptosis in human PANC-1 cells assessed as early apoptotic cells at 0.25 uM incubated for 48 hrs by Annexin V-FITC/PI staining based flow cytometry (reference value: 1.41 %). It counts as functional.
For data set [10], the system named is PANC-1. Put plainly: Induction of apoptosis in human PANC-1 cells assessed as necrotic cells at 0.25 uM incubated for 48 hrs by Annexin V-FITC/PI staining based flow cytometry (reference value: 3.09 %). It counts as functional.
The test system of data set [11] is PANC-1. Put plainly: Induction of apoptosis in human PANC-1 cells assessed as early apoptotic cells at 0.5 uM incubated for 48 hrs by Annexin V-FITC/PI staining based flow cytometry (reference value: 1.41 %). Type of data set: functional.
Data set [12] relates to PANC-1. The data set can be described thus: Induction of apoptosis in human PANC-1 cells assessed as viable cells at 1 uM incubated for 48 hrs by Annexin V-FITC/PI staining based flow cytometry (reference value: 91.64 %). Type of data set: functional. As to conditions: read-out: Activity.
Data set [13] deals with PANC-1. Put plainly: Induction of apoptosis in human PANC-1 cells assessed as early apoptotic cells at 1 uM incubated for 48 hrs by Annexin V-FITC/PI staining based flow cytometry (reference value: 1.41 %). It counts as functional.
The subject of data set [14] is PANC-1. The data set can be described thus: Induction of apoptosis in human PANC-1 cells assessed as late apoptotic cells at 1 uM incubated for 48 hrs by Annexin V-FITC/PI staining based flow cytometry (reference value: 3.87 %). It counts as functional.
Data set [15] has as its system PANC-1. Put plainly: Induction of apoptosis in human PANC-1 cells assessed as necrotic cells at 1 uM incubated for 48 hrs in presence of OL by Annexin V-FITC/PI staining based flow cytometry (reference value: 3.09 %). Type of data set: functional.
Data set [16] can be described thus: Toxicity in BALB/c mouse xenografted with human PANC-1 cells assessed as animal mortality at 20 mg/kg, ip for 4 weeks administered for 5 days consecutively and 2 days without treatment on every week. It counts as organism-based. As to conditions: in vivo, 672 h.
A short description of data set [17]: Toxicity in BALB/c mouse xenografted with human PANC-1 cells assessed as pathological changes in heart at 20 mg/kg, ip for 4 weeks administered for 5 days consecutively and 2 days without treatment on every week by H and E staining based analysis. Type of data set: organism-based. The following applies: in vivo, 672 h.
The nature of data set [18]: Toxicity in BALB/c mouse xenografted with human PANC-1 cells assessed as pathological changes in heart at 20 mg/kg, ip for 4 weeks administered for 5 days consecutively and 2 days without treatment on every week in presence of OL by H and E staining based analysis. Type of data set: organism-based. The following applies: in vivo, 672 h. Background: In xenograft studies the graft and the host belong to different species.

Data set [19] can be described thus: Toxicity in BALB/c mouse xenografted with human PANC-1 cells assessed as pathological changes in lung at 20 mg/kg, ip for 4 weeks administered for 5 days consecutively and 2 days without treatment on every week by H and E staining based analysis. It counts as organism-based. The following applies: in vivo, 672 h.
Data set [20] in a line: Toxicity in BALB/c mouse xenografted with human PANC-1 cells assessed as pathological changes in spleen at 20 mg/kg, ip for 4 weeks administered for 5 days consecutively and 2 days without treatment on every week by H and E staining based analysis. Type of data set: organism-based. The following applies: in vivo, 672 h.
Data set [21] is described as follows: Toxicity in BALB/c mouse xenografted with human PANC-1 cells assessed as pathological changes in kidney at 20 mg/kg, ip for 4 weeks administered for 5 days consecutively and 2 days without treatment on every week by H and E staining based analysis. It counts as organism-based. The following applies: in vivo, 672 h.
The test system of data set [22] is BXPC-3. Put plainly: Synergistic antiproliferative activity against human BXPC-3 cells expressing wild-type BRCA assessed as inhibition of cell viability incubated for 5 days in presence of JQ1 by CCK8 assay. As to conditions: time 5.0 day. It counts as functional, cell-based.
For data set [23], the system named is PANC-1. Put plainly: Anti-migration activity in human PANC-1 cells at 2 uM in presence of JQ1 incubated for 24 hrs by transwell assay relative to control. It counts as functional.
Data set [24] deals with PANC-1. Put plainly: Anti-invasive activity in human PANC-1 cells at 2 uM in presence of JQ1 incubated for 48 hrs by Matrigel assay relative to control. Type of data set: functional.
Data set [25] concerns PANC-1. Put plainly: Induction of DNA damage in human PANC-1 cells assessed as increase in gamma-H2AX level at 0.6 to 10 uM incubated for 48 hrs by Western blot analysis. Type of data set: functional, cell-based. The following applies: dose 0.6-10 µM. A general note: In western blotting, separated proteins are transferred to a membrane and probed.
In data set [26] the test system is PANC-1. Put plainly: Induction of cell cycle arrest in human PANC-1 cells assessed as accumulation at G2/M phase at 2 uM incubated for 24 hrs in presence of JQ1 by PI staining based flow cytometry relative to control. It counts as functional.
Data set [27] concerns PANC-1. Put plainly: Induction of apoptosis in human PANC-1 cells at 2 uM incubated for 48 hrs in presence of JQ1 by Annexin V-FITC/PI staining based flow cytometry relative to compound treatment alone. Type of data set: functional.
The test system of data set [28] is PANC-1. The data set can be described thus: Induction of apoptosis in human PANC-1 cells assessed as increase in Bax level at 2 uM incubated for 48 hrs in presence of JQ1 by Western blot analysis. Type of data set: functional, cell-based.
Data set [29] concerns PANC-1. The data set can be described thus: Induction of apoptosis in human PANC-1 cells assessed as increase in cleaved caspase-3 level at 2 uM incubated for 48 hrs in presence of JQ1 by Western blot analysis. It counts as functional, cell-based.
Data set [30] has as its system BXPC-3. Put plainly: Synergistic antiproliferative activity against human BXPC-3 cells expressing wild-type BRCA assessed as combination index at 2:1 ratio of compound:JQ1 incubated for 5 days by CCK8 assay. As to conditions: time 5 day. It counts as functional.
In data set [31] the test system is PANC-1. The data set can be described thus: Induction of cell cycle arrest in human PANC-1 cells assessed as accumulation at G2/M phase at 2 uM incubated for 24 hrs in presence of JQ1 by PI staining based flow cytometry. Type of data set: functional.
The test system of data set [32] is PANC-1. The data set can be described thus: Induction of apoptosis in human PANC-1 cells at 2 uM incubated for 48 hrs in presence of JQ1 by Annexin V-FITC/PI staining based flow cytometry relative to control. It counts as functional.

Active and inactive are the calls of the source. The rule behind the calls is not given here. A value given as a limit tells only on which side of the number the result lay.

On to `Cc1sc2c(c1C)C(c1ccc(Cl)cc1)=N[C@@H](CC(=O)OC(C)(C)C)c1nnc(C)n1-2`, for which, in data set [1], the inhibition entry was “Active”. Also, in data set [2], the result was Active. In addition, the Activity is 48.96% in data set [3]; 12.15% in [4]; 10.56% in [5]; 26.24% in data set [6]; 12.43% in data set [7]; 4.08% in [9]. Besides, the Activity is recorded as 2.48% in [10]; 3.52% in [11]; 6.72% in data set [13]; 9.46% in data set [14]; 4.77% in [15]; “Non-toxic” in [16]. In addition, the Activity result in data set [17], in data set [18], in data set [19], in data set [20] and in data set [21] was “Non-toxic” each time. In addition, in data set [8], the viability at 0.12 µM amounted to 90.2%. In data set [12], the viability at 1 µM is 80.3%.
As to `O=C1CCC(N2C(=O)c3cccc(NC(=O)CNCCCCCCCCCCC(=O)N4CCN(C(=O)c5cc(Cc6n[nH]c(=O)c7ccccc67)ccc5F)CC4)c3C2=O)C(=O)N1` (configuration not stated), in [22], the inhibition entry was “Active”. Besides, the Activity in data set [23] was 84.4%; in data set [24], 12.4%; in [26] it was 8.3%; in data set [27], 20.5%. Besides, the result in [25], in [28] and in data set [29] was Active.
For the compound `O=C(c1cc(Cc2n[nH]c(=O)c3ccccc23)ccc1F)N1CCN(C(=O)C2CC2)CC1` [OLAPARIB], the CI in [30] is less than 1. Further, the Activity result in [31] was “Active; Only A Slight Increase Observed”; in [32], 26.9%.
